The target of data set [1] is Cytochrome P450 2D6 (Homo sapiens, UniProt P10635). Nature of the data set: Competitive inhibition of CYP2D6 (unknown origin) using dextromethorphan substrate. The class given is ADME.
Data set [2] in a line: Terminal half life in orally dosed human by LC-MS/MS method. Particulars: in vivo, po, read-out: beta t1/2. The class given is ADME, organism-based.
Data set [3] can be described thus: Oral bioavailability in human. The class given is ADME, organism-based. The conditions noted are these: in vivo.
A short description of data set [4]: Terminal half life in human at 60 mg, po by LC-MS/MS method. Format: ADME, organism-based. Particulars: in vivo, read-out: beta t1/2 (converted).

Results on five compounds are retold here after ChEMBL document CHEMBL3632590, “Development of Safe and Effective Botanical Dietary Supplements” (J Med Chem, 2015).

Sequence of Cytochrome P450 2D6 (P10635 whole entry): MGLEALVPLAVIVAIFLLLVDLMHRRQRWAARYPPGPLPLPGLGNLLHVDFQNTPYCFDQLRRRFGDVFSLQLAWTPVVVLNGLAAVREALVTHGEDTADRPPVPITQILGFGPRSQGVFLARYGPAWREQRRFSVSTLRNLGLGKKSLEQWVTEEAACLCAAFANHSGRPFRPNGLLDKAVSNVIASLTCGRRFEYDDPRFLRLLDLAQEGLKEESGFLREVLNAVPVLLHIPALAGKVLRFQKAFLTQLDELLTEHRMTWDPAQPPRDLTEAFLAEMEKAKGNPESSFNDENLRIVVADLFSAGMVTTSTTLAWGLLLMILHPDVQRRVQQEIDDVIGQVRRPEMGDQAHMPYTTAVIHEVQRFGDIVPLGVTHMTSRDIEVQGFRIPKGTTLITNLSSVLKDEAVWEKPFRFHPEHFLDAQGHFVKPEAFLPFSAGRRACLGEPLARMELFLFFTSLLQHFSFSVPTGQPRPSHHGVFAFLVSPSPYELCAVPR

Turning to `COc1ccc2c(c1OC)CN(C)CCc1cc3c(cc1C(=O)C2)OCO3` [ALLOCRYPTOPINE], the Ki in data set [1] came to 122 nM.

Take `COc1cc([C@H]2Oc3cc([C@H]4Oc5cc(O)cc(O)c5C(=O)[C@@H]4O)ccc3O[C@@H]2CO)ccc1O` [SILYBIN A]: the half-life in data set [2] is less than 2 h. This compound showed a bioavailability in data set [3] of less than 0.5%.

For `COc1cc([C@@H]2Oc3cc([C@H]4Oc5cc(O)cc(O)c5C(=O)[C@@H]4O)ccc3O[C@H]2CO)ccc1O` [SILYBIN B], the half-life in data set [2] was less than 2 h. Further, the bioavailability in data set [3] is less than 0.5%.

`CC(C)=CCc1c(O)cc(O)c2c1OC(c1ccc(O)cc1)CC2=O` (configuration not stated) [SOPHORAFLAVANONE B]: in data set [4], the half-life is 20 h.

Regarding `COc1cc(O)c(CC=C(C)C)c(O)c1C(=O)/C=C/c1ccc(O)cc1` [XANTHOHUMOL], in data set [4], the half-life is 20 h.
